# Laboratory results published in article PMC5028780, “Receptor and transporter binding and activity profiles of albiflorin extracted from Radix paeoniae Alba” (Scientific Reports, 2016).
# Tests used:
# H2 = H2 (Homo sapiens, UniProt P25021); assay: CNS receptor binding, histamine H2; settings: HEK293 cell line, [3H]-tiotodine(1)
# Protocol: (§1) Albiflorin (10 μM) was tested for numerous other potential binding targets by using standard receptor binding procedures. The tested targets included the following receptors: D1, D2, D3, D4, D5, 5-HT1A, 5-HT1B, 5-HT1D, 5-HT2a, 5-HT2C, 5-HT3, 5-HT5A, 5-HT6, 5-HT7, α1A, α1B, α2A, β1, M1, M2, M3, M4, M5, μ, κ, δ, A1, A2A, H1, H2, H3, H4.
# δ = δ (Homo sapiens, UniProt P41143); assay: CNS receptor binding, opioid δ; settings: CHO cell line, [3H]-dipnorphine(1)
# δ, sequence (P41143 whole entry): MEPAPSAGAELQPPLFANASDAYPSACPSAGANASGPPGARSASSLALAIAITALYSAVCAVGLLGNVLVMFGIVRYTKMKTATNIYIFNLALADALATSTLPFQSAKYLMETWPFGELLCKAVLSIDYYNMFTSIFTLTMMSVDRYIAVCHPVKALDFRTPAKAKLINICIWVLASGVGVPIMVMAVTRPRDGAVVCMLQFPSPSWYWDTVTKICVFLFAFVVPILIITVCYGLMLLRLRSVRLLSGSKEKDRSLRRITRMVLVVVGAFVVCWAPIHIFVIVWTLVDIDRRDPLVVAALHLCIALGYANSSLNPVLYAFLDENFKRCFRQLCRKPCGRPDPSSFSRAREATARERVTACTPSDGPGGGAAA
# Protocol: as §1
# α1A = α1A (Rattus norvegicus, UniProt P43140); assay: CNS receptor binding, NE receptor α1A; settings: Rat Frontal cortex, [3H]-parzosin(1)
# α1A, sequence (P43140 whole entry): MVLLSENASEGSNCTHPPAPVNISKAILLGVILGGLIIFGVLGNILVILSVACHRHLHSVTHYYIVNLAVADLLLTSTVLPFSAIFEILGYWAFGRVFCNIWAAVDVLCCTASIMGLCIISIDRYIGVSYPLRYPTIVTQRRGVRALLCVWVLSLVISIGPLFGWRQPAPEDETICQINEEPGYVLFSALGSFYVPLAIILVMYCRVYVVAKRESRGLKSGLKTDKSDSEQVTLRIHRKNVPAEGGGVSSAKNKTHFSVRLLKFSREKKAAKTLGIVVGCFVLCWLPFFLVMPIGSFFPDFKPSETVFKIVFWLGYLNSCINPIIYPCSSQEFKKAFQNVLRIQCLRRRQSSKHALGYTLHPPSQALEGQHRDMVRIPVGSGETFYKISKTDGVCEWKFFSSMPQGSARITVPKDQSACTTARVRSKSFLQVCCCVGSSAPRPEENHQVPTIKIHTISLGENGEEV
# Protocol: as §1
# hDAT = molecular target: T1, hDAT (Homo sapiens, UniProt Q01959); format: cell-based; settings: HEK293 cell line, read-out: IC50 values, uptake of [3H]-DA (DAT)
# T1 construct: expressed in transfected cells
# Protocol: (§2) The uptake of 5-HT, NE and DA into HEK293 cells stably expressing human transporters was determined using methods previously described with slight modifications. Briefly, the culture medium was removed from cells, and the cells were washed once with phosphate-buffered saline. Krebs-Ringers-HEPES (KRH) assay buffer (100 μL/well, containing 120 mM NaCl, 4.7 mM KCl, 2.2 mM CaCl2, 1.2 mM MgSO4, 1.2 mM […], 10 mM HEPES, pH 7.4) was then added. Various concentrations of drugs were administered to cells in a 24-well plate. The uptake was initiated by the addition of [^3H]-5-HT (50 nM), [^3H]-NE (80 nM), or [^3H]-DA (50 nM). Uptake was terminated by five washes using cold KRH assay buffer after 10-min incubation at 37 °C. The cells were solubilised using 400 μL of scintillation fluid and counted using a Packard Top Count scintillation counter.
# (§3) All data for inhibition curves were analysed by nonlinear regression using Prism software (GraphPad Software Inc., San Diego, CA) to determine IC50 values. For the microdialysis experiments, two-way repeated-measures ANOVA followed by Tukey’s test was used to compare the percentage increase over baseline between groups, time and treatment as independent factors, and time as the repeated factor.
# hSERT = molecular target: T2, hSERT (Homo sapiens, UniProt P31645); format: cell-based; settings: HEK293 cell line, read-out: IC50 values, uptake of [3H]-5-HT (SERT)
# T2 construct: expressed in transfected cells
# Protocol: as §2, §3
# 5-HT1D = 5-HT1D (Homo sapiens, UniProt P28221); assay: CNS receptor binding, 5-HT1D; settings: HEK293 cell line, [3H]-LSD(10)
# 5-HT1D, sequence (P28221 whole entry): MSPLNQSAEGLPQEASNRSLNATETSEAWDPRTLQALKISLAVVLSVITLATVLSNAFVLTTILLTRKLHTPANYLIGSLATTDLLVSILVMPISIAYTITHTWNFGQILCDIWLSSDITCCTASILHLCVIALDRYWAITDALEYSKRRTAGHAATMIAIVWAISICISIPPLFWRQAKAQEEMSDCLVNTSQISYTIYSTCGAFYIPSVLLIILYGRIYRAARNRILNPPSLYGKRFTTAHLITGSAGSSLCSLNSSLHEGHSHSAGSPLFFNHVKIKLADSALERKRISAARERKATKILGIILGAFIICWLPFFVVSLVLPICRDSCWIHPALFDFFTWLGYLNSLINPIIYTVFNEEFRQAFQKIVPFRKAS
# Protocol: as §1
# 5-HT3 = 5-HT3 (Homo sapiens, UniProt P46098); assay: CNS receptor binding, 5-HT3; settings: HEK293 cell line
# 5-HT3, sequence (P46098 24-478): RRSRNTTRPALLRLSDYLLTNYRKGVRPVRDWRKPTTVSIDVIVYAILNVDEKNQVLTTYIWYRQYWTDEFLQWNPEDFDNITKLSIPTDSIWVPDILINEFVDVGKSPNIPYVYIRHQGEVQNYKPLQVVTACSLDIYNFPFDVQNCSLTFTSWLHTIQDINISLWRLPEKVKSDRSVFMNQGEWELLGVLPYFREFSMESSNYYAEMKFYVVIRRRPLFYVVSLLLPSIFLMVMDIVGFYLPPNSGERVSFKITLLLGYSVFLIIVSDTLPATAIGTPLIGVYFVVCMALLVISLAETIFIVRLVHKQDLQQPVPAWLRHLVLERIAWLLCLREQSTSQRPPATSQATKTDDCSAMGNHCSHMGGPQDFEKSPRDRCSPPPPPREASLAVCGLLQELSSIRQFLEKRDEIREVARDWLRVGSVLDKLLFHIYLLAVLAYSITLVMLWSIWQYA
# Protocol: as §1
# 5-HT5A = 5-HT5A (Homo sapiens, UniProt P47898); assay: CNS receptor binding, 5-HT5A; settings: HEK293 cell line, [3H]-LSD(1)
# 5-HT5A, sequence (P47898 whole entry): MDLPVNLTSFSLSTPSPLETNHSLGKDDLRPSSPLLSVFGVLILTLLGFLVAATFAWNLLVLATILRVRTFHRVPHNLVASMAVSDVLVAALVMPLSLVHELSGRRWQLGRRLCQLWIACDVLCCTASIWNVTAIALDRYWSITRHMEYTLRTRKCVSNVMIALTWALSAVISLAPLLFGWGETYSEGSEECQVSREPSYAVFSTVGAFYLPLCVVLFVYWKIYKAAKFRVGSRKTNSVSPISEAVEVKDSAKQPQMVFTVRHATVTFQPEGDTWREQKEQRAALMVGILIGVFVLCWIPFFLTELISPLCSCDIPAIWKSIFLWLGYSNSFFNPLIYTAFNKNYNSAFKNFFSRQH
# Protocol: as §1
# 5-HT7 = 5-HT7 (Homo sapiens, UniProt P34969); assay: CNS receptor binding, 5-HT7; settings: HEK293 cell line, [3H]-LSD(4)
# 5-HT7, sequence (P34969 whole entry): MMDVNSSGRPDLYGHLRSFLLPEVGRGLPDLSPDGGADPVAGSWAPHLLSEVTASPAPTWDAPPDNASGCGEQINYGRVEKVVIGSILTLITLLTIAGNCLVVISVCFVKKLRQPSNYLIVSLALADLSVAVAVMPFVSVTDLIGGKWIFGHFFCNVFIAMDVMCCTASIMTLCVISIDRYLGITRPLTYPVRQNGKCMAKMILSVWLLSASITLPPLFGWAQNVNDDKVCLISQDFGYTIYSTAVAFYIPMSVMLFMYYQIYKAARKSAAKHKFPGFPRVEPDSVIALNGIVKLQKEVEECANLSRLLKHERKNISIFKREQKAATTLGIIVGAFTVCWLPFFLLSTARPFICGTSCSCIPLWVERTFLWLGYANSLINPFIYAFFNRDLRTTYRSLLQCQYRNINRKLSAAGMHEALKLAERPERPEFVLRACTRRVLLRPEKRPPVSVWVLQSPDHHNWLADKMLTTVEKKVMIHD
# Protocol: as §1
# μ = μ (Homo sapiens, UniProt P35372); assay: CNS receptor binding, opioid μ; settings: CHO cell line, [3H]-dipnorphine(1)
# μ, sequence (P35372 whole entry): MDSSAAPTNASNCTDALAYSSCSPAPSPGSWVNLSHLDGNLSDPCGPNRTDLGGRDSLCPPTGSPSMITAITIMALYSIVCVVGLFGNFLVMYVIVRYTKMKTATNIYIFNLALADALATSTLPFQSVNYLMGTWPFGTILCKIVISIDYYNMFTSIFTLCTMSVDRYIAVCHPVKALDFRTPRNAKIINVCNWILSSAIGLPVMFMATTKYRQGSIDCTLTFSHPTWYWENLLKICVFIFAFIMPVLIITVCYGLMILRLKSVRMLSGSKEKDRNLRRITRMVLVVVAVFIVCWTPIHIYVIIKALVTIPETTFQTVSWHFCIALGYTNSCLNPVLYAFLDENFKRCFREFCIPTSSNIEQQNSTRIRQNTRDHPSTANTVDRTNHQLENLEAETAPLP
# Protocol: as §1
# M4 = M4 (Homo sapiens, UniProt P08173); assay: CNS receptor binding, muscarinic M4; settings: CHO cell line, [3H]-NMS(1)
# M4, sequence (P08173 whole entry): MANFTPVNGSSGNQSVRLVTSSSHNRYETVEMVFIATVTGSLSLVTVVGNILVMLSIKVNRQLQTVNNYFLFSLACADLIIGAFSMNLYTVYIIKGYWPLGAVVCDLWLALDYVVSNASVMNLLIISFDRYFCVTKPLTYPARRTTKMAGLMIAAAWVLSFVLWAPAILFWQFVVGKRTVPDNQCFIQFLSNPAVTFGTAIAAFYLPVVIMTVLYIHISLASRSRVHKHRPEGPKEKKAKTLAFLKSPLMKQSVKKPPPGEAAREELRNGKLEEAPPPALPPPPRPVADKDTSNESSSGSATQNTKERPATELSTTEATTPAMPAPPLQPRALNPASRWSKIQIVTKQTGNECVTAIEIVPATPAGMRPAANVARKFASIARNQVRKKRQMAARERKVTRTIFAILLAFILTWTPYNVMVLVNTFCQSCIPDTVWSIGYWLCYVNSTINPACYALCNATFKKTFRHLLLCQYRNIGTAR
# Protocol: as §1
# duration of immobility = test system: duration of immobility; set-up: method as in PMID 26719283; settings: mice; short- and long-term administration; cited from earlier work
# rat DAT = molecular target: T3, rat DAT (Rattus norvegicus, UniProt P23977); settings: [3H]-win35,428, Striatum, read-out: Ki values, DAT binding
# T3 construct: from tissue; host or cells: Sprague-Dawley rat brain membranes (probably striatum)
# T3 sequence (P23977 whole entry): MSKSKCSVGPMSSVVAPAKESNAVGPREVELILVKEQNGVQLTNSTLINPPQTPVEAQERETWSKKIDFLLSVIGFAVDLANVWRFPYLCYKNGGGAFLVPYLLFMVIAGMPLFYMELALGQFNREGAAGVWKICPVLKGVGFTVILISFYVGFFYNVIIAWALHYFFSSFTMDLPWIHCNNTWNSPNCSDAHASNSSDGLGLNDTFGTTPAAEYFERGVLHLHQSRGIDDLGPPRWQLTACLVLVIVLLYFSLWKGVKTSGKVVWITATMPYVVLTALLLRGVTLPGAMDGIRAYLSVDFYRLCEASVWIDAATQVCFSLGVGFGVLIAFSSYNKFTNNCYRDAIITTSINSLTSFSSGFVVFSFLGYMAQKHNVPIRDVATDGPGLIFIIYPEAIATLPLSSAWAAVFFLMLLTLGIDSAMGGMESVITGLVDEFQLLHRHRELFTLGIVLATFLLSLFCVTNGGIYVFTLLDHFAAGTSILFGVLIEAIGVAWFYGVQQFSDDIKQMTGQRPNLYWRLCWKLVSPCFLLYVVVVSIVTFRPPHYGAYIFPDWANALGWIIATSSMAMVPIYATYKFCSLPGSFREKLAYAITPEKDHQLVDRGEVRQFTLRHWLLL
# Protocol: Male Sprague–Dawley rats were killed by cervical dislocation, and their brains were rapidly removed and then dissected on ice. The cerebral cortex, hypothalamus and striatum were homogenised in 4 mL of assay buffer (50 mM Tris–HCl buffer, pH 7.4.) and centrifuged at 40,000× g for 10 min at 4 °C. The pellets were centrifuged twice at 20,000× g and then resuspended in 4 mL of assay buffer. […] Bio-Rad protein assay reagents (1:5 ratio) were used to analyse the protein concentration of the synaptosomal suspension.
# as §3
# H1 = H1 (Homo sapiens, UniProt P35367); assay: CNS receptor binding, histamine H1; settings: CHO cell line, [3H]-pyrilamine(2)
# H1, sequence (P35367 whole entry): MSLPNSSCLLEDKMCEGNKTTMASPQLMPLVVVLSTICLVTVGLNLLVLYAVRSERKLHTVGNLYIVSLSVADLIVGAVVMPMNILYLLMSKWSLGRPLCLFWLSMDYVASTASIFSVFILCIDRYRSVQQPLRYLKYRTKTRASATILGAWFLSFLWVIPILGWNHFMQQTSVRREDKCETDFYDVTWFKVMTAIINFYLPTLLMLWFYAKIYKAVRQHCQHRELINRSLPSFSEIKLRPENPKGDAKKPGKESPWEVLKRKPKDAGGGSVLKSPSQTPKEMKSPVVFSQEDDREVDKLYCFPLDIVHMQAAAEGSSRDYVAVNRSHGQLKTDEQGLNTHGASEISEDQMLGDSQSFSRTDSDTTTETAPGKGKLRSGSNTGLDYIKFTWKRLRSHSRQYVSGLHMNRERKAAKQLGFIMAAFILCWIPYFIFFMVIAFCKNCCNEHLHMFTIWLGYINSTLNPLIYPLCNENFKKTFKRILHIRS
# Protocol: as §1
# DAT = molecular target: T4, DAT (Rattus norvegicus, UniProt P23977); format: biochemical; settings: Striatum synaptosome, read-out: IC50 values, uptake of [3H]-DA (DAT)
# T4 construct: rat brain synaptosomes were prepared and treated with various concentrations of albiflorin; from tissue; host or cells: Sprague-Dawley rat striatal synaptosomes
# T4 sequence (P23977 whole entry): as the sequence (P23977 whole entry) above
# Protocol: (§4) Male Sprague–Dawley rats were killed by asphyxiation with carbon dioxide and cervical dislocation followed by decapitation. The brains were removed quickly and the cerebral cortex, hypothalamus and striatum were dissected on ice. All dissected tissues were homogenised using a Teflon-glass tissue homogeniser in 4 mL of ice-cold sucrose (0.32 M). The homogenised tissue was centrifuged at 2,000× g for 10 min at 4 °C. […] Bio-Rad protein assay reagents (1:5 ratio) were used to analyse the protein concentration of the synaptosomal suspension. Uptake of 5-HT, NE and DA was determined as described previously. The compounds to be tested were dissolved in DMSO, further diluted with assay buffer, and tested over a 10-log unit concentration range in duplicate. Samples of 30–50 μg of synaptosomes (per sample in a total volume of 200 μL) were preincubated at 37 °C in a shaking water bath for 10 min. Vehicle or modifiers were then added for 10–20 min. Uptake was initiated by adding [^3H]-5-HT (20 nM), [^3H]-NE (20 nM), or [^3H]-DA (50 nM). After a 10-min incubation at 37 °C, uptake was terminated by filtration through (polyethyleneimine-coated) GF/B Whatman filters using a Brandel Cell Harvester (Brandel, Gaithersburg, MD).
# (§5) All data for inhibition curves were analysed by nonlinear regression using Prism software (GraphPad Software Inc., San Diego, CA) to determine IC50 values. […]
# NET = NET (Rattus norvegicus, UniProt Q63380); format: biochemical; settings: Frontal cortex synaptosome, read-out: IC50 values, uptake of [3H]-NE (NET)
# Protocol: as §4, §5
# [1] = read-out: IC50 values for albiflorin
# H2, sequence (P25021 whole entry): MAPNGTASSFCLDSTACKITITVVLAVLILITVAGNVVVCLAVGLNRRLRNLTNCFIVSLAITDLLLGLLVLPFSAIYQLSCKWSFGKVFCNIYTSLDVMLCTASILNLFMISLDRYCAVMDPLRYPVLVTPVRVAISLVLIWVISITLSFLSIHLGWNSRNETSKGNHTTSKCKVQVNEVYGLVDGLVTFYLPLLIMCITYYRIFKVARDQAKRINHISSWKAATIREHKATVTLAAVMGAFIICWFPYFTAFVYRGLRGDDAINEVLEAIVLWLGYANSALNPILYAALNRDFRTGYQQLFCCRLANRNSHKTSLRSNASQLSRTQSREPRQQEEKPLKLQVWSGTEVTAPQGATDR
compound,measurement,setting,value
"C[C@]12C[C@@H](O)[C@@H]3C[C@@]1(O[C@@H]1O[C@H](CO)[C@@H](O)[C@H](O)[C@H]1O)[C@@]3(COC(=O)c1ccccc1)C(=O)O2 [albiflorin, Albiflorin]",% Inhibition of binding at 10 μM albiflorin,H2,68.99%
same,IC50,H2; [1],4 ± 0.201 µM
same,% Inhibition of binding at 10 μM albiflorin,δ,66.33%
same,IC50,δ; [1],3.66 ± 0.201 µM
same,% Inhibition of binding at 10 μM albiflorin,α1A,56.33%
same,IC50,α1A; [1],4.71 ± 0.113 µM
same,IC50,hDAT,2.24 ± 0.025 µM
same,IC50,hSERT,0.00236 ± 0.00074 µM
same,% Inhibition of binding at 10 μM albiflorin,5-HT1D,22.36%
same,IC50,5-HT1D; [1],> 10 µM
same,% Inhibition of binding at 10 μM albiflorin,5-HT3; [3H]-BRL3694,17.38%
same,IC50,"5-HT3; [3H]-BRL3694, read-out: IC50 values for albiflorin",> 10 µM
same,% Inhibition of binding at 10 μM albiflorin,5-HT5A,20.11%
same,IC50,5-HT5A; [1],> 10 µM
same,% Inhibition of binding at 10 μM albiflorin,5-HT7,14.55%
same,IC50,5-HT7; [1],> 10 µM
same,% Inhibition of binding at 10 μM albiflorin,μ,23.66%
same,IC50,μ; [1],> 10 µM
same,% Inhibition of binding at 10 μM albiflorin,M4,15.33%
same,IC50,M4; [1],> 10 µM
same,"antidepressant-like effect, tail-suspension test",duration of immobility,decreases in the duration of immobility
same,Ki,rat DAT,3.656 ± 0.0254 µM
same,% Inhibition of binding at 10 μM albiflorin,H1,6.33%
same,IC50,H1; [1],> 10 µM
same,IC50,DAT,3.69 ± 0.114 µM
same,IC50,NET,0.00098 ± 0.00024 µM
